The source of these data is patent publication US20210253528A1, “CHEMICAL COMPOUNDS” (GLAXOSMITHKLINE INTELLECTUAL PROPERTY DEVELOPMENT LIMITED, priority 2018, published 2021).

In this test the test system is ATF4 translation. Nature of the test: ATF4 Cell Based Assay (ATF4 reporter assay, NanoLuc luciferase fused to ATF4 5'-UTR, thapsigargin-induced stress). As to conditions: SH-SY5Y-ATF4-NanoLuc cells, 200 nM thapsigargin, overnight (typically 19 hours); average of a set of two or more experimental runs; read-out: average ATF4 pathway inhibitory activity IC50. The text has this: The ATF4 reporter assay measures the effect of thapsigargin-induced cellular stress on ATF4 expression. For this reporter assay, a stable cell line was created by transfecting SH-SY5Y cells with a plasmid containing the NanoLuc® luciferase gene fused to the 5′-UTR of ATF4, under the control of the CMV promoter. The ATF4 5′-UTR contains two open reading frames which mediate the cellular stress-dependent translation of the reporter gene. Clones stably expressing the reporter construct were isolated and selected based on the luminescence response to thapsigargin and inhibition of this signal by test compounds. Briefly, SH-SY5Y-ATF4-NanoLuc cells were challenged with thapsigargin to determine the stress effect with or without test compounds. Cells were propagated in DMEM/F12 growth media containing 10% FBS (Invitrogen 10999-141) and 0.5 mg/mL geneticin (Corning 30-234-CR). Aliquots of cells were cryopreserved in dialyzed FBS containing 10% DMSO.
Test compounds were prepared in neat DMSO at a concentration of 10 mM. Assay plates were prepared by adding 250 nL of compound stock solution to test wells in a 384-well white tissue culture-treated plate (Greiner 781073). For inhibition curves, compounds were diluted using a three-fold serial dilution and tested at 11 concentrations (10 μM-0.17 nM).
Aliquots of frozen cells were thawed with a 37C water bath. The cells were washed using DMEM/F12 (1:1) (1×) (Gibco 11039-021). The cells were re-suspended in the DMEM/F12 and the suspension was counted. A final suspension of 7.5e5 cells/ml was prepared.
A volume of 20 uL of cell suspension was added to compound plates (15K cells/well). Cells were incubated for 1 hour at 37° C. A volume of 5 μL of 1 uM Thapsigargin solution was added to each well, resulting in a final concentration of 200 nM. Assay plates were then incubated at 37 C overnight, typically for 19 hours.
The measurement of luciferase produced by the ATF4 constructs was measured using Nano-Glo Luciferase Assay reagent, Promega N1150. (The components of the Promega kit are: Nano-Glo® Luciferase Assay Substrate, N113C, Nano-Glo® Luciferase Assay Buffer, N1128.) The buffer is brought to room temperature, and a solution of 50:1 buffer:substrate were prepared. The cell plates were equilibrated to room temperature. A volume of 20 microliters/well of the mixed Nano-Glo reagent were dispensed into assay and control wells. The plates were read on a Viewlux plate reader.
In general terms: In a reporter assay the amount or activity of a reporter protein is the signal.
As for `O=C(COc1ccc(Cl)cc1)NC12CC(CNC(=O)Nc3ccc(Cl)c(Cl)c3)(C1)C2` [Example 22, 2-(4-chlorophenoxy)-N-(3-((3-(3,4-dichlorophenyl)ureido)methyl)bicyclo[1.1.1]pentan-1-yl)acetamide], the IC50 amounted to 6 nM. Then `O=C(COc1ccc(Cl)c(C(F)(F)F)c1)NC12CC(COC(=O)Nc3ccc(Cl)c(F)c3)(C1)C2` [Example 8a, (3-(2-(4-chloro-3-(trifluoromethyl)phenoxy)acetamido)bicyclo[1.1.1]pentan-1-yl)methyl (4-chloro-3-fluorophenyl)carbamate], with 79 nM; and `O=C(COc1ccc(Cl)cc1)NC12CC(CNC(=O)Nc3ccc(Cl)cc3)(C1)C2` [Example 4, 2-(4-Chlorophenoxy)-N-(3-((3-(4-chlorophenyl)ureido)methyl)bicyclo[1.1.1]pentan-1-yl)acetamide], with 10 nM; and `O=C(COc1ccc(Cl)c(F)c1)NC12CC(CNC(=O)Nc3ccc(Cl)c(Cl)c3)(C1)C2` [Example 23, 2-(4-chloro-3-fluorophenoxy)-N-(3-((3-(3,4-dichlorophenyl)ureido)methyl)bicyclo[1.1.1]pentan-1-yl)acetamide], with 8 nM. Next, `O=C(COc1ccc(F)cc1)NC12CC(COC(=O)Nc3ccc(Cl)c(F)c3)(C1)C2` [Example 14, (3-(2-(4-fluorophenoxy)acetamido)bicyclo [1.1.1]pentan-1-yl)methyl (4-chloro-3-fluorophenyl) carbamate]: 79 nM; `O=C(COc1ccc(Cl)c(F)c1)NC12CC(COC(=O)Nc3ccc(Cl)cc3)(C1)C2` [Example 3, (3-(2-(4-chloro-3-fluorophenoxy)acetamido)bicyclo[1.1.1]pentan-1-yl)methyl (4-chlorophenyl)carbamate]: 25 nM; `O=C(COc1ccc(F)c(F)c1)NC12CC(COC(=O)Nc3ccc(F)c(F)c3)(C1)C2` [Example 16, (3-(2-(3,4-difluorophenoxy)acetamido)bicyclo [1.1.1]pentan-1-yl)methyl (3,4-difluorophenyl) carbamate]: 158 nM. Then `O=C(COc1ccc(Cl)cc1)NC12CC(CNC(=S)Nc3ccc(Cl)cc3)(C1)C2` [Example 6a, 2-(4-chlorophenoxy)-N-(3-((3-(4-chlorophenyl)thioureido)methyl)bicyclo[1.1.1]pentan-1-yl)acetamide], with 126 nM; and `O=C(COc1ccc(Cl)c(Cl)c1)NC12CC(COC(=O)Nc3ccc(Cl)cc3)(C1)C2` [Example 12, (3-(2-(3,4-dichlorophenoxy)acetamido)bicyclo [1.1.1]pentan-1-yl)methyl (4-chlorophenyl) carbamate], with 32 nM; and `O=C(Nc1ccc(Cl)c(F)c1)OCC12CC(NC(=O)c3ccc4c(c3)OC(F)(F)O4)(C1)C2` [Example 19, (3-(2,2-difluorobenzo[d] [1,3]dioxole-5-carboxamido)bicyclo[1.1.1]pentan-1-yl)methyl (4-chloro-3-fluorophenyl) carbamate], with 158 nM. `O=C(COc1ccc(Cl)c(F)c1)NC12CCC(COC(=O)Nc3ccc(Cl)c(F)c3)(C1)C2` [Example 26, (4-(2-(4-chloro-3-fluorophenoxy)acetamido)bicyclo[2.1.1]hexan-1-yl)methyl (4-chloro-3-fluorophenyl) carbamate]: the IC50 amounted to 80 nM. Then `O=C(COc1ccc(Cl)cc1)NC12CC(COC(=O)Nc3ccc(Cl)cc3)(C1)C2` [Example 1, (3-(2-(4-Chlorophenoxy)acetamido)bicyclo[1.1.1]pentan-1-yl)methyl (4-chlorophenyl)carbamate], with 25 nM; and `O=C(COc1ccc(Cl)c(F)c1)NC12CC(COC(=O)Nc3ccc(Cl)c(Cl)c3)(C1)C2` [Example 10, (3-(2-(4-chloro-3-fluorophenoxy)acetamido)bicyclo [1.1.1]pentan-1-yl)methyl (3,4-dichlorophenyl) carbamate], with 25 nM; and `O=C(CNc1ccc(Cl)cc1)NC12CC(COC(=O)Nc3ccc(Cl)c(F)c3)(C1)C2` [Example 18, (3-(2-((4-chlorophenyl)amino)acetamido)bicyclo [1.1.1]pentan-1-yl) methyl (4-chloro-3-fluorophenyl carbamate], with 1260 nM.

Broadly, the IC50 is the concentration needed to halve the response being measured.
